Results reported in patent publication US8877741B2, “Pyrrolidine derivatives, pharmaceutical compositions and uses thereof” (Boehringer Ingelheim International GmbH, priority 2013, dated 2014).

Target: human ACC2 (Homo sapiens (Human), UniProt O00763)
Assay: ACC2 assay, spectrophotometric 384 well assay (NADH-linked kinetic method)
Type: biochemical
Details: human ACC2 construct lacking the 128 N-terminal amino acids; coupled lactate dehydrogenase/pyruvate kinase reaction, 340 nm, 25° C.
Procedure, shortened: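 N-terminally truncated human ACC2 (lacking 128 residues), expressed in insect cells, was coupled to pyruvate kinase/lactate dehydrogenase, with NADH and acetyl-CoA at 2000 μM and ATP at 500 μM final. The OD340 decrease was followed over 15 min at 25 °C. Slopes were normalised to vehicle and no-acetyl-CoA controls, and IC50 came from four-parameter regression.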

human ACC2, sequence (O00763 129-2458): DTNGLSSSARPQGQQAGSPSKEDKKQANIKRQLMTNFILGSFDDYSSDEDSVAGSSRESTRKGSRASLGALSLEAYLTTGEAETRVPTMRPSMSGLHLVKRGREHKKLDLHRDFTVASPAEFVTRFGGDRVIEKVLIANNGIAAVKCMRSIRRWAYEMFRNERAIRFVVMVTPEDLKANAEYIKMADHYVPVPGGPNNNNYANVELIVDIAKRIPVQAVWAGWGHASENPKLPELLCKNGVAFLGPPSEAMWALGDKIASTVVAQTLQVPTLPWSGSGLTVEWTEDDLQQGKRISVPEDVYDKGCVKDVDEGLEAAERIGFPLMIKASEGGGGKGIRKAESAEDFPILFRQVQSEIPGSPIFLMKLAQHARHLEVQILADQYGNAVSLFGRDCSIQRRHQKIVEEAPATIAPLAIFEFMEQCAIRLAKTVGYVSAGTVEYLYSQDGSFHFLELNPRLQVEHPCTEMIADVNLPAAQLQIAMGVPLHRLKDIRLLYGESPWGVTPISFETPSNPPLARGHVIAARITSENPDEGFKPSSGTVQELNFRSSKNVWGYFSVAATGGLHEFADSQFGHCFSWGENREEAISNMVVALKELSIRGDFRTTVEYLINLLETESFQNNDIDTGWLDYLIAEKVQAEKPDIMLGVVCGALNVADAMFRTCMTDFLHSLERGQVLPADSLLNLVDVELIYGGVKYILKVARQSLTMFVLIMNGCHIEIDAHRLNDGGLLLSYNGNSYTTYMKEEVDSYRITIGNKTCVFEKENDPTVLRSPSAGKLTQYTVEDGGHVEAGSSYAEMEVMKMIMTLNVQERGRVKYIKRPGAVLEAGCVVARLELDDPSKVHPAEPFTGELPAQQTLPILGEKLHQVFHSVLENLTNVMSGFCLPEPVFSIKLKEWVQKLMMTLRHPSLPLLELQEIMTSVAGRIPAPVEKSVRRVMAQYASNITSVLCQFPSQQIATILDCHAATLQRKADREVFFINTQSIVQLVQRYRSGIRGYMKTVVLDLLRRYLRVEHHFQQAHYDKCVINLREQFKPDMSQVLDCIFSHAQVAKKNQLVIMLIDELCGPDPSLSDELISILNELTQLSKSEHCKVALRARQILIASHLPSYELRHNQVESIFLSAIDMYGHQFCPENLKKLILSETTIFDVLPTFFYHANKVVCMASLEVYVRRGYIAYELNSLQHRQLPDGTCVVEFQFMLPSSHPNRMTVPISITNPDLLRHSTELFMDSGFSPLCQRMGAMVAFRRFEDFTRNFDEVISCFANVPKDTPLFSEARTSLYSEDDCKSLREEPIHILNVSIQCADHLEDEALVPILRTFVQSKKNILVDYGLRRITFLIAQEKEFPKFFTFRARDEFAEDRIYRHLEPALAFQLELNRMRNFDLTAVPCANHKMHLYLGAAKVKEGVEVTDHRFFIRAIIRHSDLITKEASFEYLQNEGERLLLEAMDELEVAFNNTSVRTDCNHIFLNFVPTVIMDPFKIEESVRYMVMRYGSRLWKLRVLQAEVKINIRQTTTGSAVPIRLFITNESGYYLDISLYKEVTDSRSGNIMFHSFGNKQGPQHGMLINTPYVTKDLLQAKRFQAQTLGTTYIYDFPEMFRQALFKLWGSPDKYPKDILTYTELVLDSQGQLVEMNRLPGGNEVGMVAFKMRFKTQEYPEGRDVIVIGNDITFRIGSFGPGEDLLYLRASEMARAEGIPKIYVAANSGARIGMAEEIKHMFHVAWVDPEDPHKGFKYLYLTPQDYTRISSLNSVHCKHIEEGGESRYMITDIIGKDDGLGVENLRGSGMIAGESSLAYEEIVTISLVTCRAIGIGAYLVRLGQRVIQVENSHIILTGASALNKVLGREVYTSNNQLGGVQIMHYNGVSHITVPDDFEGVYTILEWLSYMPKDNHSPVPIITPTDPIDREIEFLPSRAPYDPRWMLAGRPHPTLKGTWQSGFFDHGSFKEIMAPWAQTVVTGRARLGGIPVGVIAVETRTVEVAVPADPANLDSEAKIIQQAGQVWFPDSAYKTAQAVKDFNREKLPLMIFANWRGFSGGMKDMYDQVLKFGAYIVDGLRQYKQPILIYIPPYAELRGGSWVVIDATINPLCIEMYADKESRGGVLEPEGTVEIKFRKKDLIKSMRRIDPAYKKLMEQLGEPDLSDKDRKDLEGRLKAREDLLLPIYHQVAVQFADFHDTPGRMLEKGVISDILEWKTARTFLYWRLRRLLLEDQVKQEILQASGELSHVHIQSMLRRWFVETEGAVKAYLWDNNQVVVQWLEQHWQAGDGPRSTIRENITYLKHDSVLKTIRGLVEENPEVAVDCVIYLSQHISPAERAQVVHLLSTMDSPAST

Structure (SMILES) | IC50
CC(=O)N[C@@H](C)c1ccc(O[C@@H]2CCN(c3ccnc(OCC(F)F)c3OCC(F)F)C2)cc1 [Example 9.66] | 615 nM
CC(=O)N[C@@H](C)c1ccc(O[C@@H]2CCN(c3nccc(OCC4CC4)c3F)C2)cc1 [Example 9.67] | 146 nM
CCCOc1ccnc(N2CC[C@@H](Oc3ccc([C@H](C)NC(C)=O)cc3)C2)c1F [Example 9.68] | 251 nM
CCOc1ccnc(N2CC[C@@H](Oc3ccc([C@H](C)NC(C)=O)cc3)C2)c1F [Example 9.69] | 603 nM
CC(=O)N[C@@H](C)c1ccc(O[C@@H]2CCN(c3cc(OCC(F)F)ncc3F)C2)cc1 [Example 9.70] | 124 nM
CC(=O)N[C@@H](C)c1ccc(O[C@@H]2CCN(c3ccnc(OCC4CC4(F)F)c3Cl)C2)cc1 (some centres unmarked) [Example 9.71] | 45 nM
CC(=O)N[C@@H](C)c1ccc(O[C@@H]2CCN(c3ccnc(OCC(F)F)c3Cl)C2)cc1 [Example 9.72] | 79 nM
CCC(=O)Nc1nc(C)c(C(=O)N[C@@H](C)c2ccc(O[C@@H]3CCN(c4ccnc(OCC5CC5)c4Cl)C3)cc2)s1 [Example 9.73] | 45 nM
CC(=O)N[C@@H](C)c1ccc(O[C@@H]2CCN(c3ccnc(OCC(C)O)c3F)C2)cc1 (some centres unmarked) [Example 9.74] | 220 nM
CC(=O)N[C@@H](C)c1ccc(O[C@@H]2CCN(c3ccnc(OCCO)c3F)C2)cc1 [Example 9.75] | 881 nM
CCOc1nccc(N2CC[C@@H](Oc3ccc([C@H](C)NC(C)=O)cc3)C2)c1Cl [Example 9.76] | 114 nM
CC(=O)N[C@@H](C)c1ccc(O[C@@H]2CCN(c3ccnc(OCC(C)(F)F)c3Cl)C2)cc1 [Example 9.77] | 59 nM
CCCOc1nccc(N2CC[C@@H](Oc3ccc([C@H](C)NC(C)=O)cc3)C2)c1Cl [Example 9.78] | 57 nM
COC(C)(C)COc1nccc(N2CC[C@@H](Oc3ccc([C@H](C)NC(C)=O)cc3)C2)c1Cl [Example 9.79] | 132 nM
CC(=O)N[C@@H](C)c1ccc(O[C@@H]2CCN(c3ccnc(OC(C)C)c3Cl)C2)cc1 [Example 9.80] | 138 nM
CC(=O)N[C@@H](C)c1ccc(O[C@@H]2CCN(c3ccnc(OC4CCCC4)c3Cl)C2)cc1 [Example 9.81] | 53 nM
CC(=O)N[C@@H](C)c1ccc(O[C@@H]2CCN(c3ccnc(OCC4CC4)c3Cl)C2)cc1 [Example 9.82] | 35 nM
CC(=O)N[C@@H](C)c1ccc(O[C@@H]2CCN(c3ccnc(OC(C)C)c3F)C2)cc1 [Example 9.83] | 80 nM
CC(=O)N[C@@H](C)c1ccc(O[C@@H]2CCN(c3ccnc(OC4CCCC4)c3F)C2)cc1 [Example 9.84] | 45 nM
CC(=O)N[C@@H](C)c1ccc(O[C@@H]2CCN(c3ccnc(OCC(C)(F)F)c3F)C2)cc1 [Example 9.85] | 58 nM
CCOc1nccc(N2CC[C@@H](Oc3ccc([C@H](C)NC(C)=O)cc3)C2)c1F [Example 9.86] | 187 nM
COC(C)(C)COc1nccc(N2CC[C@@H](Oc3ccc([C@H](C)NC(C)=O)cc3)C2)c1F [Example 9.87] | 280 nM
CC(=O)N[C@@H](C)c1ccc(O[C@@H]2CCN(c3ccnc(OCC(C)(C)O)c3Cl)C2)cc1 [Example 9.88] | 177 nM
CC(=O)N[C@@H](C)c1ccc(O[C@@H]2CCN(c3cccc(N(C)C)n3)C2)cc1 [Example 10.1, N—((S)-1-(4-((R)-1-(6-(Dimethylamino)pyridin-2-yl)pyrrolidin-3-yloxy)phenyl)ethyl)acetamide] | 145 nM

Structure (SMILES) | IC50
CC(=O)N[C@@H](C)c1ccc(O[C@@H]2CCN(c3cccc(N(C)CC4CC4)n3)C2)cc1 [Example 10.2] | 208 nM
CC(=O)N[C@@H](C)c1ccc(O[C@@H]2CCN(c3cccc(N4CCCC4)n3)C2)cc1 [Example 10.3] | 153 nM
CC(=O)N[C@@H](C)c1ccc(O[C@@H]2CCN(c3cccc(N4CCCCC4)n3)C2)cc1 [Example 10.4] | 261 nM
CCCN(C)c1cccc(N2CC[C@@H](Oc3ccc([C@H](C)NC(C)=O)cc3)C2)n1 [Example 10.5] | 182 nM
CC(=O)N[C@@H](C)c1ccc(O[C@@H]2CCN(c3nc(N4CCCCC4)c(F)cc3F)C2)cc1 [Example 10.6] | 827 nM
CCCN(C)c1nc(N2CC[C@@H](Oc3ccc([C@H](C)NC(C)=O)cc3)C2)c(F)cc1F [Example 10.7] | 505 nM
CC(=O)N[C@@H](C)c1ccc(O[C@@H]2CCN(c3nc(N4CCCC4)c(F)cc3F)C2)cc1 [Example 10.8] | 594 nM
CC(=O)N[C@@H](C)c1ccc(O[C@@H]2CCN(c3ccnc(N(C)C4CCCC4)c3)C2)cc1 [Example 10.9] | 849 nM
CC(=O)N[C@@H](C)c1ccc(O[C@@H]2CCN(c3cccc(N4CCC(C)C4)n3)C2)cc1 (some centres unmarked) [Example 10.10] | 115 nM
CC(=O)N[C@@H](C)c1ccc(O[C@@H]2CCN(c3cccc(N4CCC4)n3)C2)cc1 [Example 10.11] | 209 nM
CCNc1cccc(N2CC[C@@H](Oc3ccc([C@H](C)NC(C)=O)cc3)C2)n1 [Example 10.12] | 691 nM
CC(=O)N[C@@H](C)c1ccc(O[C@@H]2CCN(c3cccc(N4CCOCC4)n3)C2)cc1 [Example 10.13] | 498 nM
CCN(C)c1nccc(N2CC[C@@H](Oc3ccc([C@H](C)NC(C)=O)cc3)C2)c1F [Example 10.14] | 45 nM
CC(=O)N[C@@H](C)c1ccc(O[C@@H]2CCN(c3ccnc(N4CCOCC4)c3F)C2)cc1 [Example 10.15] | 150 nM
CC(=O)N[C@@H](C)c1ccc(O[C@@H]2CCN(c3ccnc(N4CCCC4)c3F)C2)cc1 [Example 10.16] | 35 nM
CC(=O)N[C@@H](C)c1ccc(O[C@@H]2CCN(c3ccnc(N(C)C)c3F)C2)cc1 [Example 10.17] | 97 nM
CC(=O)N[C@@H](C)c1ccc(O[C@@H]2CCN(c3nc(N(C)C)ccc3F)C2)cc1 [Example 10.18] | 855 nM
CCN(CC)c1nccc(N2CC[C@@H](Oc3ccc([C@H](C)NC(C)=O)cc3)C2)c1F [Example 10.19] | 35 nM
CC(=O)N[C@@H](C)c1ccc(O[C@@H]2CCN(c3cc(N4CCCC4)ncc3F)C2)cc1 [Example 10.20] | 167 nM
CNc1cccc(N2CC[C@@H](Oc3ccc([C@H](C)NC(C)=O)cc3)C2)n1 [Example 10.21] | 963 nM
CC(=O)N[C@@H](C)c1ccc(O[C@@H]2CCN(c3cc(N4CCOCC4)ncc3F)C2)cc1 [Example 10.22] | 552 nM
CCN(C)c1cc(N2CC[C@@H](Oc3ccc([C@H](C)NC(C)=O)cc3)C2)c(F)cn1 [Example 10.23] | 87 nM
CC(=O)N[C@@H](C)c1ccc(O[C@@H]2CCN(c3cc(N(C)C)ncc3F)C2)cc1 [Example 10.24] | 285 nM
CC(=O)N[C@@H](C)c1ccc(O[C@@H]2CCN(c3cccc(N(C)CC4CCOC4)n3)C2)cc1 (some centres unmarked) [Example 10.25] | 331 nM

Structure (SMILES) | IC50
CC(=O)N[C@@H](C)c1ccc(O[C@@H]2CCN(c3cc(NCC4CC4)ncc3F)C2)cc1 [Example 10.26] | 755 nM
CCN(CC)c1cccc(N2CC[C@@H](Oc3ccc([C@H](C)NC(C)=O)cc3)C2)n1 [Example 10.27] | 123 nM
COCCN(C)c1cccc(N2CC[C@@H](Oc3ccc([C@H](C)NC(C)=O)cc3)C2)n1 [Example 10.28] | 142 nM
CC(=O)N[C@@H](C)c1ccc(O[C@@H]2CCN(c3cccc(N(C)C4CCCC4)n3)C2)cc1 [Example 10.29] | 170 nM
CCN(C)c1cccc(N2CC[C@@H](Oc3ccc([C@H](C)NC(C)=O)cc3)C2)n1 [Example 10.30] | 154 nM
CC(=O)N[C@@H](C)c1ccc(O[C@@H]2CCN(c3cccc(N(C)C(C)C)n3)C2)cc1 [Example 10.31] | 314 nM
CC(=O)N[C@@H](C)c1ccc(O[C@@H]2CCN(c3cccc(N4CCC5(CC5)C4)n3)C2)cc1 [Example 10.32] | 245 nM
CC(=O)N[C@@H](C)c1ccc(O[C@@H]2CCN(c3cccc(N4CCCC4C)n3)C2)cc1 (some centres unmarked) [Example 10.33] | 133 nM
CC(=O)N[C@@H](C)c1ccc(O[C@@H]2CCN(c3cccc(N4CCC(F)(F)CC4)n3)C2)cc1 [Example 10.34] | 464 nM
CC(=O)N[C@@H](C)c1ccc(O[C@@H]2CCN(c3cccc(N(C)CC(C)O)n3)C2)cc1 (some centres unmarked) [Example 10.35] | 853 nM
CC(=O)N[C@@H](C)c1ccc(O[C@@H]2CCN(c3cccc(N(C)CC(C)C)n3)C2)cc1 [Example 10.36] | 399 nM
COC1CCCN(c2cccc(N3CC[C@@H](Oc4ccc([C@H](C)NC(C)=O)cc4)C3)n2)C1 (some centres unmarked) [Example 10.37] | 325 nM
CC(=O)N[C@@H](C)c1ccc(O[C@@H]2CCN(c3cccc(N4CCOC(C)(C)C4)n3)C2)cc1 [Example 10.38] | 369 nM
CC(=O)N[C@@H](C)c1ccc(O[C@@H]2CCN(c3cccc(N(C)C4CCOCC4)n3)C2)cc1 [Example 10.39] | 360 nM
CC(=O)N[C@@H](C)c1ccc(O[C@@H]2CCN(c3cccc(N4CCCOCC4)n3)C2)cc1 [Example 10.40] | 528 nM
COC[C@H]1CCCN1c1cccc(N2CC[C@@H](Oc3ccc([C@H](C)NC(C)=O)cc3)C2)n1 [Example 10.41] | 1020 nM
COC1CCN(c2cccc(N3CC[C@@H](Oc4ccc([C@H](C)NC(C)=O)cc4)C3)n2)CC1 [Example 10.42] | 759 nM
CCN(CCO)c1cccc(N2CC[C@@H](Oc3ccc([C@H](C)NC(C)=O)cc3)C2)n1 [Example 10.43] | 770 nM
CC(=O)N[C@@H](C)c1ccc(O[C@@H]2CCN(c3cccc(N4CC=CC4)n3)C2)cc1 [Example 10.44] | 665 nM
CC(=O)N[C@@H](C)c1ccc(O[C@@H]2CCN(c3cccc(N(C)C[C@H]4CCCO4)n3)C2)cc1 [Example 10.45] | 165 nM
COC[C@@H]1CCCN1c1cccc(N2CC[C@@H](Oc3ccc([C@H](C)NC(C)=O)cc3)C2)n1 [Example 10.46] | 175 nM
CC(=O)N[C@@H](C)c1ccc(O[C@@H]2CCN(c3cccc(N4CCC(C)(O)C4)n3)C2)cc1 (some centres unmarked) [Example 10.47] | 455 nM
CC(=O)N[C@@H](C)c1ccc(O[C@@H]2CCN(c3cccc(N4CCC(C)(C)C4)n3)C2)cc1 [Example 10.48] | 256 nM
